US9492471B2, “Methods of treating a disease or disorder associated with Bruton'S Tyrosine Kinase” (Celgene Avilomics Research, Inc., priority 2013, dated 2016)
Where two headings read alike, the source gives them in different places.

Legend:
Assay in all cases: HotSpot kinase profiling
Format in all cases: biochemical
[1] = biological target: T1, CAMKK2 (Homo sapiens, UniProt Q96RR4)
T1 construct: purchased Reaction Biology Corp
Method in brief: (§1)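 P81 filtration radiometric readout; 2 h incubation at room temperature; 0.1% phosphoric acid wash; DMSO negative control; % inhibition, mean of replicate runs.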

[2] = biological target: T2, Aurora A (Homo sapiens, UniProt O14965)
T2 construct: purchased Reaction Biology Corp
T2 sequence (O14965 1-403): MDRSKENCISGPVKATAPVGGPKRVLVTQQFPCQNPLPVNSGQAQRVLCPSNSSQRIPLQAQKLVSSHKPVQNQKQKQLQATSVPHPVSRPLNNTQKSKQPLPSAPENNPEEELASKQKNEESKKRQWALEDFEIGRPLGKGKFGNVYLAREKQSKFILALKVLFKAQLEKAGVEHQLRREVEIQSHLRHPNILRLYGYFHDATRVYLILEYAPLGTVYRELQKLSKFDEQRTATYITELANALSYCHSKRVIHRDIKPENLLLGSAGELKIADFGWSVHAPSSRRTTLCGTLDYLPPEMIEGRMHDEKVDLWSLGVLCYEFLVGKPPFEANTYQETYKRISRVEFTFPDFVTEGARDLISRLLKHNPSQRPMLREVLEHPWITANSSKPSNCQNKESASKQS
Method in brief: as §1

[3] = biological target: T3, P70S6K/RPS6KB1 (Homo sapiens, UniProt P23443)
T3 construct: purchased Reaction Biology Corp
Method in brief: as §1

[4] = biological target: T4, TSSK2 (Homo sapiens, UniProt Q96PF2)
T4 construct: purchased Reaction Biology Corp
T4 sequence (Q96PF2 1-358): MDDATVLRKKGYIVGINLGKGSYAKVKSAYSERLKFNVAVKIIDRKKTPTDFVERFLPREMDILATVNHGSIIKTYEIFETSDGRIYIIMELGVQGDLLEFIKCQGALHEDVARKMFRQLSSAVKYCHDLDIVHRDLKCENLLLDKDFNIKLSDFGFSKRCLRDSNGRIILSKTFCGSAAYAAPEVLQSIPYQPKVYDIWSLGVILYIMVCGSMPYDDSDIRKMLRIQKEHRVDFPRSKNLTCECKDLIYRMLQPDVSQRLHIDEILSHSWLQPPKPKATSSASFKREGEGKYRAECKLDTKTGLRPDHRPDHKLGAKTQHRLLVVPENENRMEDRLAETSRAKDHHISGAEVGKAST
Method in brief: as §1

[5] = biological target: T5, DYRK3 (Homo sapiens, UniProt O43781)
T5 construct: purchased Reaction Biology Corp
T5 sequence (O43781 1-588): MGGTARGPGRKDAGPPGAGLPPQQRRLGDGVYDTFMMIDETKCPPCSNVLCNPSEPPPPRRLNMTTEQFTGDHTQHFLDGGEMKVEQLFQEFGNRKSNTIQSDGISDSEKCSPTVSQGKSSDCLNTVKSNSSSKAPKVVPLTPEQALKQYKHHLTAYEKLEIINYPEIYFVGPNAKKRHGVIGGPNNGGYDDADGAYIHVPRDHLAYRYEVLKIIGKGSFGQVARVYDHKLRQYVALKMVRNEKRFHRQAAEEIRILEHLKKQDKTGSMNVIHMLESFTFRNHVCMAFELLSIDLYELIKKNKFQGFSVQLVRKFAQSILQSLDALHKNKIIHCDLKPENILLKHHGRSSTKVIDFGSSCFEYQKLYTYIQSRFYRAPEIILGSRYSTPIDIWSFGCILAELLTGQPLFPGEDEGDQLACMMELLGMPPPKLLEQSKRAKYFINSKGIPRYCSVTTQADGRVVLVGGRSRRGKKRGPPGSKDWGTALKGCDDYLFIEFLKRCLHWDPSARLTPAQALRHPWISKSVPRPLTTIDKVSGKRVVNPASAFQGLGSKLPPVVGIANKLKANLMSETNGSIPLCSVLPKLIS
Method in brief: as §1

[6] = biological target: T6, ABL1 (Homo sapiens, UniProt P00519)
T6 construct: purchased Reaction Biology Corp
Method in brief: as §1

[7] = biological target: T7, RSK4 (Homo sapiens, UniProt Q9UK32)
T7 construct: purchased Reaction Biology Corp
Method in brief: as §1

[8] = biological target: T8, MEK3 (Homo sapiens, UniProt P46734)
T8 construct: purchased Reaction Biology Corp
T8 sequence (P46734 1-347): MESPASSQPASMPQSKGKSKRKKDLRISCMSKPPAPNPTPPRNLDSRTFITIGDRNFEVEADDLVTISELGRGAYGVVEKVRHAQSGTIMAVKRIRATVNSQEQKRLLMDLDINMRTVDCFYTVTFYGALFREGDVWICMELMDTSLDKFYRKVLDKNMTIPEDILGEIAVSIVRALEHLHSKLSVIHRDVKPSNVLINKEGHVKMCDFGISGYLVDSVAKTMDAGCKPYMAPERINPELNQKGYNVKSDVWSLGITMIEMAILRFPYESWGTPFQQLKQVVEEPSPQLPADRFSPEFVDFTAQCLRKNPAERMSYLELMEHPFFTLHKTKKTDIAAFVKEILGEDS
Method in brief: as §1

[9] = biological target: T9, LYN (Homo sapiens, UniProt P07948)
T9 construct: purchased Reaction Biology Corp
Method in brief: as §1

[10] = read-out: % Enzyme Activity (relative to DMSO controls) Run 1
[11] = read-out: % Enzyme Activity (relative to DMSO controls) Run 2

T9 sequence (P07948 whole entry): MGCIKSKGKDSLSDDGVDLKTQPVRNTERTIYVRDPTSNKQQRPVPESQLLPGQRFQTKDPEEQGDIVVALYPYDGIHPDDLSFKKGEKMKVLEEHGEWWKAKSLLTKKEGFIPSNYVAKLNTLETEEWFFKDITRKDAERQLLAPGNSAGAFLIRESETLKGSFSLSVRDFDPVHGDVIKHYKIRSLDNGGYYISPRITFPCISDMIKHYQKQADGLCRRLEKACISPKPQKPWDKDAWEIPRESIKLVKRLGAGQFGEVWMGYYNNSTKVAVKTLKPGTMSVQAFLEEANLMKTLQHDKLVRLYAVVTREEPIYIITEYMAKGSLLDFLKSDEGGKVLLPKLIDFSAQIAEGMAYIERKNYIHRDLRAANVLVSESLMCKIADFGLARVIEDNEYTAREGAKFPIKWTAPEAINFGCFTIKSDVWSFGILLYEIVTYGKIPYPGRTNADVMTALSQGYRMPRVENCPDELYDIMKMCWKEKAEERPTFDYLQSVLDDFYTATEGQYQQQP
T1 sequence (Q96RR4 whole entry): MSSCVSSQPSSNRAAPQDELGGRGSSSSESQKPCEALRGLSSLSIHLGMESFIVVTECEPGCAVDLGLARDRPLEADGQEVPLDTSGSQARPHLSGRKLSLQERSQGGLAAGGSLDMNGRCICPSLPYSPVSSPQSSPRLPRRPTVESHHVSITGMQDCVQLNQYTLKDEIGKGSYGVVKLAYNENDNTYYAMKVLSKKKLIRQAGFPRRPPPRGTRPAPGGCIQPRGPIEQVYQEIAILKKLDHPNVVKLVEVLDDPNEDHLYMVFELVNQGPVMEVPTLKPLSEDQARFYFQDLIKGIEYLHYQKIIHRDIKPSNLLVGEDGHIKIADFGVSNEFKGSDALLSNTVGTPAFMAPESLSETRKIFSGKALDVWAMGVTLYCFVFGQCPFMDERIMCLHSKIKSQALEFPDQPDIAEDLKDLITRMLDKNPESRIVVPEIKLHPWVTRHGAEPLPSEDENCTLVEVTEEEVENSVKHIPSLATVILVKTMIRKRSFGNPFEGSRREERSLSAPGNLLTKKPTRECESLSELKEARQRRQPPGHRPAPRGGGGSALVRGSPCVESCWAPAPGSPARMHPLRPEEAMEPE
T3 sequence (P23443 whole entry): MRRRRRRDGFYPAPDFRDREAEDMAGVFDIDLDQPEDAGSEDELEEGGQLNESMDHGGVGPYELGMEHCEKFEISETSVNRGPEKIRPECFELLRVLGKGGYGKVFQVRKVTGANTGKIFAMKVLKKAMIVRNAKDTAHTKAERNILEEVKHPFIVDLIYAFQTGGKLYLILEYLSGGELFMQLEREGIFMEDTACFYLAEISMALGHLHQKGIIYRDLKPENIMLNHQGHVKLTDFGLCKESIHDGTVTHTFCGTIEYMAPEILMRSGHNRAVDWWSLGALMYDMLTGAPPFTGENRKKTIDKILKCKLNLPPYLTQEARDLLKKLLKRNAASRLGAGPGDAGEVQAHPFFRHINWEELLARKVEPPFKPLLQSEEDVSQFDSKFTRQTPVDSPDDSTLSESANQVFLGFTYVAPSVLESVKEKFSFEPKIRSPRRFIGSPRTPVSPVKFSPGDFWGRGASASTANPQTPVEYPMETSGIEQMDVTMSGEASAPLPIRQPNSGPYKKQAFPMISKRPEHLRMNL
T6 sequence (P00519 whole entry): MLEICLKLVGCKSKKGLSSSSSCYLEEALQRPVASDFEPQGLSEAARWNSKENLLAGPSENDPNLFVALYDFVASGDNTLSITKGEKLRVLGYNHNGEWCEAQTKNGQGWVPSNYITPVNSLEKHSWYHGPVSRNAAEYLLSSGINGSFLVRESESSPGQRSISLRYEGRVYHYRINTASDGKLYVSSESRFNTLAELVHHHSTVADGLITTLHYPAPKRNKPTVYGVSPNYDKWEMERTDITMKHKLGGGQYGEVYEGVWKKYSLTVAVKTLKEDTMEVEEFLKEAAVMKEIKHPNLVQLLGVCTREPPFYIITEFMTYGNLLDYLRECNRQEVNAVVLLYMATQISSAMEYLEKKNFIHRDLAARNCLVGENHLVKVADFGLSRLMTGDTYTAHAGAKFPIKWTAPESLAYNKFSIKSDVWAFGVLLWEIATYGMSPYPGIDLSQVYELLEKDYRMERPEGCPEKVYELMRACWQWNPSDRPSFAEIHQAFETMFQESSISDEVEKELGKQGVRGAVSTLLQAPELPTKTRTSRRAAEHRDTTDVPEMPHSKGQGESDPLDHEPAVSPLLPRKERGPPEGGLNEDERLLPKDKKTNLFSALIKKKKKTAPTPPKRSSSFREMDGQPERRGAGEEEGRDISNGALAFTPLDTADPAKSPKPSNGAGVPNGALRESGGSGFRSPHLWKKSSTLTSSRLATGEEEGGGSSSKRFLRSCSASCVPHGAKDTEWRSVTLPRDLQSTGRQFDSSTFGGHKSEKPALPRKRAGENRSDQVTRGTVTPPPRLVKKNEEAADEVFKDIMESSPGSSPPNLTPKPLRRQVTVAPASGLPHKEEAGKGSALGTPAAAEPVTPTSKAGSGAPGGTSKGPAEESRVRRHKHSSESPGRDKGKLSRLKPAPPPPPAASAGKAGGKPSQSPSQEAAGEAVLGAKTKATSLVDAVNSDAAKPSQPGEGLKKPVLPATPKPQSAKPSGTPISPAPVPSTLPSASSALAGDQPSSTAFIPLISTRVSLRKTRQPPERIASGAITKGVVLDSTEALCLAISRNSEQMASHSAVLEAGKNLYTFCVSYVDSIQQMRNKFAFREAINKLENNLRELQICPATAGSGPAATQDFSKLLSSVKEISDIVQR
T7 sequence (Q9UK32 whole entry): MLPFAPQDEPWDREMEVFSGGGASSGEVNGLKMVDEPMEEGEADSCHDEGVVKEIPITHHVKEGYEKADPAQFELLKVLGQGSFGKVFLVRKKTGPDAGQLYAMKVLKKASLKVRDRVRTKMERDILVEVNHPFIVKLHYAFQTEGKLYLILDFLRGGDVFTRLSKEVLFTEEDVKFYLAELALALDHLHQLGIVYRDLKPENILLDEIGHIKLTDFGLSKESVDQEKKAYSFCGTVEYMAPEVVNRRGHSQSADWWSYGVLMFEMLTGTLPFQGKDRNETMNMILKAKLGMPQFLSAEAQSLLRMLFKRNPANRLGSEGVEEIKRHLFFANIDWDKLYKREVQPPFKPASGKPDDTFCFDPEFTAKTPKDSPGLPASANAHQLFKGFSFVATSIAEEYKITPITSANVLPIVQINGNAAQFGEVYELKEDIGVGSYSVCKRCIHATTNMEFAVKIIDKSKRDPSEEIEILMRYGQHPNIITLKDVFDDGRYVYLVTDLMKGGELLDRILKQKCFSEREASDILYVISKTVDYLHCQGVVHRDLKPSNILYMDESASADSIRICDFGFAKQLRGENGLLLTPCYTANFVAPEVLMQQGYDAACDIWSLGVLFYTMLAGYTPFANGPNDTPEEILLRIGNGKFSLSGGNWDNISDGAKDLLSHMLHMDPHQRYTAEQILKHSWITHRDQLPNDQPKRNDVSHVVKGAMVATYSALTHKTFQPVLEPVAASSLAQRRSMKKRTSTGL

## C=CC(=O)Nc1cccc(Nc2nc(Nc3ccc(OCCOC)c(F)c3)ncc2F)c1 [Compound 2]
[1]
  inhibition at 3 µM: 26.8%
[1]; [10]
  remaining activity at 3 µM: 74.7%
[1]; [11]
  remaining activity at 3 µM: 71.8%
[2]
  inhibition at 3 µM: 88.3%
[2]; [10]
  remaining activity at 3 µM: 12.3%
[2]; [11]
  remaining activity at 3 µM: 11%
[3]
  inhibition at 3 µM: 16.5%
[3]; [10]
  remaining activity at 3 µM: 85.9%
[3]; [11]
  remaining activity at 3 µM: 81%
[4]
  inhibition at 3 µM: 3.36%
[4]; [10]
  remaining activity at 3 µM: 97%
[4]; [11]
  remaining activity at 3 µM: 96.3%
[5]
  inhibition at 3 µM: 14.1%
[5]; [10]
  remaining activity at 3 µM: 86%
[5]; [11]
  remaining activity at 3 µM: 85.9%
[6]
  inhibition at 3 µM: 54.7%
[6]; [10]
  remaining activity at 3 µM: 45.4%
[6]; [11]
  remaining activity at 3 µM: 45.2%
[7]
  inhibition at 3 µM: 22.8%
[7]; [10]
  remaining activity at 3 µM: 77.2%
[7]; [11]
  remaining activity at 3 µM: 77.2%
[8]
  inhibition at 3 µM: -15.3%
[8]; [10]
  remaining activity at 3 µM: 117%
[8]; [11]
  remaining activity at 3 µM: 113%
[9]
  inhibition at 3 µM: 27.5%
[9]; [10]
  remaining activity at 3 µM: 71.7%
[9]; [11]
  remaining activity at 3 µM: 73.2%
